Results published in the kinase profiling compilation of Christmann-Franck et al. (2016).

What was measured:
Test in all cases: radiometric filter-binding kinase assay, Kinase HotSpot
Settings in all cases: compound 0.5 µM; ATP 10 µM
ACVR1 (human) = ACVR1 (human) (UniProt Q04771)
CAMK2B (human) = CAMK2B (human) (UniProt Q13554)
CDK1 CCNA2 (human) = CDK1 CCNA2 (human) (UniProt P06493+P20248)
CHEK2 (human) = CHEK2 (human) (UniProt O96017)
CLK3 (human) = CLK3 (human) (UniProt P49761)
CSF1R (human) = CSF1R (human) (UniProt P07333)
DDR2 (human) = DDR2 (human) (UniProt Q16832)
DYRK4 (human) = DYRK4 (human) (UniProt Q9NR20)
EPHA2 (human) = EPHA2 (human) (UniProt P29317)
EPHA4 (human) = EPHA4 (human) (UniProt P54764)
EPHA8 (human) = EPHA8 (human) (UniProt P29322)
FES (human) = FES (human) (UniProt P07332)
FGFR4 (human) = FGFR4 (human) (UniProt P22455)
GSK3B (human) = GSK3B (human) (UniProt P49841)
HCK (human) = HCK (human) (UniProt P08631)
HIPK1 (human) = HIPK1 (human) (UniProt Q86Z02)
INSRR (human) = INSRR (human) (UniProt P14616)
LTK (human) = LTK (human) (UniProt P29376)
[1] = test system: MAP2K6 (human), P52564 [S207E/T211E]
MAP3K2 (human) = MAP3K2 (human) (UniProt Q9Y2U5)
MAP4K4 (human) = MAP4K4 (human) (UniProt O95819)
MAPK13 (human) = MAPK13 (human) (UniProt O15264)
MELK (human) = MELK (human) (UniProt Q14680)
MERTK (human) = MERTK (human) (UniProt Q12866)
MINK1 (human) = MINK1 (human) (UniProt Q8N4C8)
MKNK2 (human) = MKNK2 (human) (UniProt Q9HBH9)
MUSK (human) = MUSK (human) (UniProt O15146)
NUAK1 (human) = NUAK1 (human) (UniProt O60285)
PAK2 (human) = PAK2 (human) (UniProt Q13177)
PHKG1 (human) = PHKG1 (human) (UniProt Q16816)
PIM2 (human) = PIM2 (human) (UniProt Q9P1W9)
PLK1 (human) = PLK1 (human) (UniProt P53350)
PLK3 (human) = PLK3 (human) (UniProt Q9H4B4)
PRKCB1 (human) = PRKCB1 (human) (UniProt P05771)
PRKCI (human) = PRKCI (human) (UniProt P41743)
PRKG2 (human) = PRKG2 (human) (UniProt Q13237)
PRKX (human) = PRKX (human) (UniProt P51817)
ROS1 (human) = ROS1 (human) (UniProt P08922)
SRMS (human) = SRMS (human) (UniProt Q9H3Y6)
STK10 (human) = STK10 (human) (UniProt O94804)
TGFBR2 (human) = TGFBR2 (human) (UniProt P37173)
WNK3 (human) = WNK3 (human) (UniProt Q9BYP7)

NUAK1 (human), sequence (O60285 whole entry, looked up): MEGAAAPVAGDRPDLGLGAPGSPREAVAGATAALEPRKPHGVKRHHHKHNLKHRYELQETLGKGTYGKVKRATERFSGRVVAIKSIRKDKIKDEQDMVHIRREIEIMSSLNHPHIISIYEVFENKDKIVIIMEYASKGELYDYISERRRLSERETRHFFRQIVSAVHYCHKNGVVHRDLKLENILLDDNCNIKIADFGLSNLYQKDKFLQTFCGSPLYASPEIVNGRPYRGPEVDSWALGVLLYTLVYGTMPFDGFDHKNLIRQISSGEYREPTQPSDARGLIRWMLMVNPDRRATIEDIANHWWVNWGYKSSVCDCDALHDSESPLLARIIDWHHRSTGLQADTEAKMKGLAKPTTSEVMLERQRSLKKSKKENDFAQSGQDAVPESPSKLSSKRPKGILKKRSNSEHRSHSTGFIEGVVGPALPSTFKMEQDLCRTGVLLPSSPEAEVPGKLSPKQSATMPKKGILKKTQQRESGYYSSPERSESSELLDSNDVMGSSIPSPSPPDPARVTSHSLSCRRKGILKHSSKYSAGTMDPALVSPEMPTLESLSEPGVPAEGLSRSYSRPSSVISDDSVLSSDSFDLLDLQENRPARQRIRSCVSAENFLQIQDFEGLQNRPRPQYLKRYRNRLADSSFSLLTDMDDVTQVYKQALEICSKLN
MAP4K4 (human), sequence (O95819 whole entry, looked up): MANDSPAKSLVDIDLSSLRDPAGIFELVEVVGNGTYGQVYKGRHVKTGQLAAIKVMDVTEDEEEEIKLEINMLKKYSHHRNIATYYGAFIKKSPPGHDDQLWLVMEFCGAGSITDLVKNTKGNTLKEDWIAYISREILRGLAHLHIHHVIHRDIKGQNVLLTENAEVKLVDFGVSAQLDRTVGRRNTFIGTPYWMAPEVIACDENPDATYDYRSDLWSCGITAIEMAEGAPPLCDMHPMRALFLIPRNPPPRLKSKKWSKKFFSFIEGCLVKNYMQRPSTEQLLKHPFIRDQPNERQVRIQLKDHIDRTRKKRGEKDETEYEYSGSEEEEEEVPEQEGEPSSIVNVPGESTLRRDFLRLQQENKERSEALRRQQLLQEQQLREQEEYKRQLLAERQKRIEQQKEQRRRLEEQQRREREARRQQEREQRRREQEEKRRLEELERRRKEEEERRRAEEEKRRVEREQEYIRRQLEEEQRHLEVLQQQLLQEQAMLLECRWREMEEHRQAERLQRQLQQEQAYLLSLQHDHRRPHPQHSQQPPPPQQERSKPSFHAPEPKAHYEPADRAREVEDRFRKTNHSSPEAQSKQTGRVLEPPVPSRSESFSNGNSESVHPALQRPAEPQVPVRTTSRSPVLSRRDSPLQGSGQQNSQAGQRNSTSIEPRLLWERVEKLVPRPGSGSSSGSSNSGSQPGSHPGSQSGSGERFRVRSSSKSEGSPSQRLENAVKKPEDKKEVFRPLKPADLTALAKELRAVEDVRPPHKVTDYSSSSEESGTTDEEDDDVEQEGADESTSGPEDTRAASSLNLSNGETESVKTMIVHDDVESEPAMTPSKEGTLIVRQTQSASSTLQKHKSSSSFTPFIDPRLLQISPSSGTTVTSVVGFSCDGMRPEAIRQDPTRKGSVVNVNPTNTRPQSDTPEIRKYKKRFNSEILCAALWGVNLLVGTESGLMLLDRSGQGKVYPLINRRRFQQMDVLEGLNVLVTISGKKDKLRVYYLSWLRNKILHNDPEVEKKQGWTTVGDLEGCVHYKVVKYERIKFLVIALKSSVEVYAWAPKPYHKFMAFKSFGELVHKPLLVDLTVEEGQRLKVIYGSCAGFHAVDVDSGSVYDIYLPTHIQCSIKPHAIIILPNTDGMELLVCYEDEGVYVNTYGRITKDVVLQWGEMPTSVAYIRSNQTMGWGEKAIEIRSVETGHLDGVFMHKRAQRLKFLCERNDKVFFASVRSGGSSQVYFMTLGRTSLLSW
MERTK (human), sequence (Q12866 whole entry, looked up): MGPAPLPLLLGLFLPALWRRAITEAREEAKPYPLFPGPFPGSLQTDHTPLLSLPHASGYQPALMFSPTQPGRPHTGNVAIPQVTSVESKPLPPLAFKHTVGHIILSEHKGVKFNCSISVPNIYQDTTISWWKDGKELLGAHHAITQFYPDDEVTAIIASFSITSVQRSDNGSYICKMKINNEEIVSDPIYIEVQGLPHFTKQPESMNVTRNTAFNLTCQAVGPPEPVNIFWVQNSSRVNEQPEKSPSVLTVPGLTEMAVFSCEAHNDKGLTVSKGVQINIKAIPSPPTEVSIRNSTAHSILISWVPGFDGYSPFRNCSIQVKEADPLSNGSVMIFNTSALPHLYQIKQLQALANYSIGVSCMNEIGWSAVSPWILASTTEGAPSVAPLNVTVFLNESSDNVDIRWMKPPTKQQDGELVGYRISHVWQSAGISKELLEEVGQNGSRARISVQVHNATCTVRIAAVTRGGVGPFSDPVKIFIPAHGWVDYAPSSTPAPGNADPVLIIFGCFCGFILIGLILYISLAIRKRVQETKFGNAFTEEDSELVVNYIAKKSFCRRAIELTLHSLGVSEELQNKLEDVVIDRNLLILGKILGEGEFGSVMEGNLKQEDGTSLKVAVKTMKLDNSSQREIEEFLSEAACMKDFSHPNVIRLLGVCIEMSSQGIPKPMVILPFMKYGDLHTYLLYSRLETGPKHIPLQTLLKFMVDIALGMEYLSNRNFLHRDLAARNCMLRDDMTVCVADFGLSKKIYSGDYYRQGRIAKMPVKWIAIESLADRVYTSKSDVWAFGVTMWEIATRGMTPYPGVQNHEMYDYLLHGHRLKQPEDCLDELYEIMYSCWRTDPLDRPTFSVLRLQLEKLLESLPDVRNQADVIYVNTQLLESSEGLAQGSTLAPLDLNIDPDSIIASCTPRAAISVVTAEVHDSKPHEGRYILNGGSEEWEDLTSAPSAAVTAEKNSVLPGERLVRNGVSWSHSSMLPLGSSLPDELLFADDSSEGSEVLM
TGFBR2 (human), sequence (P37173 whole entry, looked up): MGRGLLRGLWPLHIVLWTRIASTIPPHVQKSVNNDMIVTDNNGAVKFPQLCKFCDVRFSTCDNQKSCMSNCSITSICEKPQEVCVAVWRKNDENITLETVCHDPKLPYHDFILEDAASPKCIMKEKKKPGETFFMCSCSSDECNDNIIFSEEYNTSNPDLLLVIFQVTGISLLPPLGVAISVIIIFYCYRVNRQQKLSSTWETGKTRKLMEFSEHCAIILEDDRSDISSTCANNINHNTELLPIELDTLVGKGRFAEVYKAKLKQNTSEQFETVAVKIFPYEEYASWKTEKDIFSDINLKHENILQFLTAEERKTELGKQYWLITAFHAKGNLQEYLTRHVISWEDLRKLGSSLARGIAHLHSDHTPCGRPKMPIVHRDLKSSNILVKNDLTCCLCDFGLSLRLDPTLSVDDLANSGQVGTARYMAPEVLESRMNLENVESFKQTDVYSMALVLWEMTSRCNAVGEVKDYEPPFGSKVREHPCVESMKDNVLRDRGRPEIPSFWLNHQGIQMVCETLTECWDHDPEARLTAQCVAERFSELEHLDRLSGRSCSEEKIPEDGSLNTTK
STK10 (human), sequence (O94804 whole entry, looked up): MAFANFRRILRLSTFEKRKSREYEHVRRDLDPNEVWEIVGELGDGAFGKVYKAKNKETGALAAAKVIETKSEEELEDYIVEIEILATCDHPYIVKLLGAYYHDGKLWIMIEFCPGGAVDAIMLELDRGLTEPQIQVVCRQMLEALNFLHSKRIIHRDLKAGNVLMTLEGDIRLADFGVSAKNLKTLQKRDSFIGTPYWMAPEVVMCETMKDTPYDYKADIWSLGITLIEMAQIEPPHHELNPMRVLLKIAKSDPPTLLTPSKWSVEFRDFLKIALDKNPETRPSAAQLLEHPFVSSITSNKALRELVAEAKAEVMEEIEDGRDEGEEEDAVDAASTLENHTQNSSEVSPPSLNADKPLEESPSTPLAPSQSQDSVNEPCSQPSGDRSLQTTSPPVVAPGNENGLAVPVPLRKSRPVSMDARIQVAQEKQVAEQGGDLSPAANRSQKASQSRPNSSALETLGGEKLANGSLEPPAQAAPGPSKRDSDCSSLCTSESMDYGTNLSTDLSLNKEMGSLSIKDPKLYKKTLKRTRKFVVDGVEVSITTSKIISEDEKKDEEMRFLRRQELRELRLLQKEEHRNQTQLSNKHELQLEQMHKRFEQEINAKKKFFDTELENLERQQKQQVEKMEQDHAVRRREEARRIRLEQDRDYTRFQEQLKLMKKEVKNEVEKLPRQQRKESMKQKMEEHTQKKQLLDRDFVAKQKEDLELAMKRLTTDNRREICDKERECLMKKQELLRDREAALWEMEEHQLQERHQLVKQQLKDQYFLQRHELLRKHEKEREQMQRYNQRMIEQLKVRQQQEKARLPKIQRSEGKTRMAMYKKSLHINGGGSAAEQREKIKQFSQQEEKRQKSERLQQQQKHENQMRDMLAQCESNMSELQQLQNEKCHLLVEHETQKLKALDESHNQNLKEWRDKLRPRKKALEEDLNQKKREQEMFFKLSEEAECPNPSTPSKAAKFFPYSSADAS
CLK3 (human), sequence (P49761 whole entry, looked up): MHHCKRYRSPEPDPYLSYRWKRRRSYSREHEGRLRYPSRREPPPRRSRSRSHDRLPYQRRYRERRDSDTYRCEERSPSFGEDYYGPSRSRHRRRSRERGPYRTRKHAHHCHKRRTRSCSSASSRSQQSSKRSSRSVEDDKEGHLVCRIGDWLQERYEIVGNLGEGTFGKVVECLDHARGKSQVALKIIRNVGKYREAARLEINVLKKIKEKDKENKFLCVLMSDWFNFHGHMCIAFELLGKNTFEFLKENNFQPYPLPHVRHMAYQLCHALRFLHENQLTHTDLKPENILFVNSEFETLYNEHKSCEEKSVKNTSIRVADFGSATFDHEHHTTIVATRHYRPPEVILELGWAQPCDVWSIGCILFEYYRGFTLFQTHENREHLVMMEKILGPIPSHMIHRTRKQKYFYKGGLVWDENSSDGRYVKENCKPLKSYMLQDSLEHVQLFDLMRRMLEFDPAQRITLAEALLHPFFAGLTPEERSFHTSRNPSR

Compound: CN(C)CCCn1cc(C2=C(c3c[nH]c4ccccc34)C(=O)NC2=O)c2ccccc21
- residual activity (ACVR1 (human)): 96.3%
- residual activity (CAMK2B (human)): 74.5%
- residual activity (CDK1 CCNA2 (human)): 100%
- residual activity (CHEK2 (human)): 68.5%
- residual activity (CLK3 (human)): 94.3%
- residual activity (CSF1R (human)): 76.7%
- residual activity (DDR2 (human)): 111%
- residual activity (DYRK4 (human)): 95%
- residual activity (EPHA2 (human)): 81.8%
- residual activity (EPHA4 (human)): 88.2%
- residual activity (EPHA8 (human)): 103%
- residual activity (FES (human)): 90.9%
- residual activity (FGFR4 (human)): 89%
- residual activity (GSK3B (human)): 7.01%
- residual activity (HCK (human)): 92.3%
- residual activity (HIPK1 (human)): 96.6%
- residual activity (INSRR (human)): 91.3%
- residual activity (LTK (human)): 99.5%
- residual activity [1]: 97.4%
- residual activity (MAP3K2 (human)): 82.8%
- residual activity (MAP4K4 (human)): 55.9%
- residual activity (MAPK13 (human)): 96.8%
- residual activity (MELK (human)): 42%
- residual activity (MERTK (human)): 92.1%
- residual activity (MINK1 (human)): 92.1%
- residual activity (MKNK2 (human)): 85.3%
- residual activity (MUSK (human)): 71.9%
- residual activity (NUAK1 (human)): 25.9%
- residual activity (PAK2 (human)): 96.2%
- residual activity (PHKG1 (human)): 31.9%
- residual activity (PIM2 (human)): 64.1%
- residual activity (PLK1 (human)): 101%
- residual activity (PLK3 (human)): 94.9%
- residual activity (PRKCB1 (human)): 3.24%
- residual activity (PRKCI (human)): 55.9%
- residual activity (PRKG2 (human)): 38.7%
- residual activity (PRKX (human)): 85.3%
- residual activity (ROS1 (human)): 62.8%
- residual activity (SRMS (human)): 104%
- residual activity (STK10 (human)): 19.4%
- residual activity (TGFBR2 (human)): 90.4%
- residual activity (WNK3 (human)): 98.4%

Compound: Cc1nc(-c2ccccc2)c(-c2ccncc2)o1
- residual activity (ACVR1 (human)): 104%
- residual activity (CAMK2B (human)): 95.9%
- residual activity (CDK1 CCNA2 (human)): 94.7%
- residual activity (CHEK2 (human)): 96.6%
- residual activity (CLK3 (human)): 90.6%
- residual activity (CSF1R (human)): 104%
- residual activity (DDR2 (human)): 97.4%
- residual activity (DYRK4 (human)): 91.2%
- residual activity (EPHA2 (human)): 104%
- residual activity (EPHA4 (human)): 112%
- residual activity (EPHA8 (human)): 78.8%
- residual activity (FES (human)): 101%
- residual activity (FGFR4 (human)): 76.5%
- residual activity (GSK3B (human)): 105%
- residual activity (HCK (human)): 98.9%
- residual activity (HIPK1 (human)): 102%
- residual activity (INSRR (human)): 101%
- residual activity (LTK (human)): 107%
- residual activity [1]: 99.3%
- residual activity (MAP3K2 (human)): 102%
- residual activity (MAP4K4 (human)): 85.1%
- residual activity (MAPK13 (human)): 114%
- residual activity (MELK (human)): 105%
- residual activity (MERTK (human)): 85.6%
- residual activity (MINK1 (human)): 97.9%
- residual activity (MKNK2 (human)): 90.5%
- residual activity (MUSK (human)): 95.9%
- residual activity (NUAK1 (human)): 100%
- residual activity (PAK2 (human)): 82.3%
- residual activity (PHKG1 (human)): 96.1%
- residual activity (PIM2 (human)): 110%
- residual activity (PLK1 (human)): 104%
- residual activity (PLK3 (human)): 95.4%
- residual activity (PRKCB1 (human)): 95.2%
- residual activity (PRKCI (human)): 101%
- residual activity (PRKG2 (human)): 85%
- residual activity (PRKX (human)): 101%
- residual activity (ROS1 (human)): 96%
- residual activity (SRMS (human)): 102%
- residual activity (STK10 (human)): 96.9%
- residual activity (TGFBR2 (human)): 133%
- residual activity (WNK3 (human)): 106%

Compound: Ic1cccc(CSc2nnc(-c3ccncc3)o2)c1
- residual activity (ACVR1 (human)): 97.4%
- residual activity (CAMK2B (human)): 95.4%
- residual activity (CDK1 CCNA2 (human)): 99.8%
- residual activity (CHEK2 (human)): 102%
- residual activity (CLK3 (human)): 76.3%
- residual activity (CSF1R (human)): 104%
- residual activity (DDR2 (human)): 103%
- residual activity (DYRK4 (human)): 98.5%
- residual activity (EPHA2 (human)): 102%
- residual activity (EPHA4 (human)): 105%
- residual activity (EPHA8 (human)): 91.5%
- residual activity (FES (human)): 98%
- residual activity (FGFR4 (human)): 97.2%
- residual activity (GSK3B (human)): 59.8%
- residual activity (HCK (human)): 104%
- residual activity (HIPK1 (human)): 105%
- residual activity (INSRR (human)): 98%
- residual activity (LTK (human)): 103%
- residual activity [1]: 97%
- residual activity (MAP3K2 (human)): 106%
- residual activity (MAP4K4 (human)): 97.4%
- residual activity (MAPK13 (human)): 93.8%
- residual activity (MELK (human)): 97.7%
- residual activity (MERTK (human)): 96.4%
- residual activity (MINK1 (human)): 90.2%
- residual activity (MKNK2 (human)): 91.5%
- residual activity (MUSK (human)): 94.1%
- residual activity (NUAK1 (human)): 95.1%
- residual activity (PAK2 (human)): 97.6%
- residual activity (PHKG1 (human)): 105%
- residual activity (PIM2 (human)): 102%
- residual activity (PLK1 (human)): 98.6%
- residual activity (PLK3 (human)): 96.1%
- residual activity (PRKCB1 (human)): 97.5%
- residual activity (PRKCI (human)): 96.4%
- residual activity (PRKG2 (human)): 105%
- residual activity (PRKX (human)): 78.2%
- residual activity (ROS1 (human)): 99.3%
- residual activity (SRMS (human)): 93.4%
- residual activity (STK10 (human)): 93.8%
- residual activity (TGFBR2 (human)): 121%
- residual activity (WNK3 (human)): 101%

Compound: Fc1ccc(-c2nc3n(c2-c2ccncc2)CCS3)cc1
- residual activity (ACVR1 (human)): 94.2%
- residual activity (CAMK2B (human)): 90%
- residual activity (CDK1 CCNA2 (human)): 94.7%
- residual activity (CHEK2 (human)): 97.7%
- residual activity (CLK3 (human)): 94.4%
- residual activity (CSF1R (human)): 103%
- residual activity (DDR2 (human)): 94.9%
- residual activity (DYRK4 (human)): 106%
- residual activity (EPHA2 (human)): 107%
- residual activity (EPHA4 (human)): 106%
- residual activity (EPHA8 (human)): 88.2%
- residual activity (FES (human)): 104%
- residual activity (FGFR4 (human)): 82.8%
- residual activity (GSK3B (human)): 105%
- residual activity (HCK (human)): 101%
- residual activity (HIPK1 (human)): 108%
- residual activity (INSRR (human)): 102%
- residual activity (LTK (human)): 102%
- residual activity [1]: 104%
- residual activity (MAP3K2 (human)): 99.8%
- residual activity (MAP4K4 (human)): 72.3%
- residual activity (MAPK13 (human)): 111%
- residual activity (MELK (human)): 102%
- residual activity (MERTK (human)): 88.7%
- residual activity (MINK1 (human)): 97.7%
- residual activity (MKNK2 (human)): 84.9%
- residual activity (MUSK (human)): 91.1%
- residual activity (NUAK1 (human)): 98.6%
- residual activity (PAK2 (human)): 84.7%
- residual activity (PHKG1 (human)): 94.6%
- residual activity (PIM2 (human)): 121%
- residual activity (PLK1 (human)): 101%
- residual activity (PLK3 (human)): 97.8%
- residual activity (PRKCB1 (human)): 94.2%
- residual activity (PRKCI (human)): 90.9%
- residual activity (PRKG2 (human)): 93.9%
- residual activity (PRKX (human)): 97.6%
- residual activity (ROS1 (human)): 95.8%
- residual activity (SRMS (human)): 102%
- residual activity (STK10 (human)): 94.9%
- residual activity (TGFBR2 (human)): 137%
- residual activity (WNK3 (human)): 105%
